Values of other authors in publication PMC8760190 (Molecular Imaging and Biology, 2021).

Details: 90 min after injection, rats and mice

CCN(CC)C(=O)Cc1c(-c2ccc([18F])cc2)nn2c(C)cc(C)nc12 [[^18F]F-DPA]
Non-metabolized parent compound as share of remaining radioactivity in the brain: more than 90%

CCN(CC)C(=O)Cc1c(-c2ccc(OCC[18F])cc2)nn2c(C)cc(C)nc12 [[^18F]DPA-714]
Non-metabolized parent compound as share of remaining radioactivity in the brain: about 50%
